Data taken from paper PMC11472331 (Journal of Medicinal Chemistry, 2024).
Like-named read-outs stand apart in the source and are kept apart here.

Experiments:
HDAC1 = HDAC1 (Homo sapiens, UniProt Q13547); experiment: HDAC isoform inhibition assay (Reaction Biology); details: read-out: IC50 HDAC1; 10-dose IC50 mode, threefold serial dilution starting at 10 μM
LSD1 [1] = target: T1, LSD1 (Homo sapiens, UniProt O60341); details: read-out: IC50 (μM, LSD1 inhibition); 10-dose IC50 mode, singlet, threefold serial dilution starting at 100 μM
HCT-116 = HCT-116 xenograft model; assay type: in vivo, Balb/c nude mice; details: 50 or 100 mg/kg ip qd, nude mice
HDAC6 = target: T2, HDAC6 (Homo sapiens, UniProt Q9UBN7); experiment: HDAC isoform inhibition assay (Reaction Biology)
T2 sequence (Q9UBN7 1-1215): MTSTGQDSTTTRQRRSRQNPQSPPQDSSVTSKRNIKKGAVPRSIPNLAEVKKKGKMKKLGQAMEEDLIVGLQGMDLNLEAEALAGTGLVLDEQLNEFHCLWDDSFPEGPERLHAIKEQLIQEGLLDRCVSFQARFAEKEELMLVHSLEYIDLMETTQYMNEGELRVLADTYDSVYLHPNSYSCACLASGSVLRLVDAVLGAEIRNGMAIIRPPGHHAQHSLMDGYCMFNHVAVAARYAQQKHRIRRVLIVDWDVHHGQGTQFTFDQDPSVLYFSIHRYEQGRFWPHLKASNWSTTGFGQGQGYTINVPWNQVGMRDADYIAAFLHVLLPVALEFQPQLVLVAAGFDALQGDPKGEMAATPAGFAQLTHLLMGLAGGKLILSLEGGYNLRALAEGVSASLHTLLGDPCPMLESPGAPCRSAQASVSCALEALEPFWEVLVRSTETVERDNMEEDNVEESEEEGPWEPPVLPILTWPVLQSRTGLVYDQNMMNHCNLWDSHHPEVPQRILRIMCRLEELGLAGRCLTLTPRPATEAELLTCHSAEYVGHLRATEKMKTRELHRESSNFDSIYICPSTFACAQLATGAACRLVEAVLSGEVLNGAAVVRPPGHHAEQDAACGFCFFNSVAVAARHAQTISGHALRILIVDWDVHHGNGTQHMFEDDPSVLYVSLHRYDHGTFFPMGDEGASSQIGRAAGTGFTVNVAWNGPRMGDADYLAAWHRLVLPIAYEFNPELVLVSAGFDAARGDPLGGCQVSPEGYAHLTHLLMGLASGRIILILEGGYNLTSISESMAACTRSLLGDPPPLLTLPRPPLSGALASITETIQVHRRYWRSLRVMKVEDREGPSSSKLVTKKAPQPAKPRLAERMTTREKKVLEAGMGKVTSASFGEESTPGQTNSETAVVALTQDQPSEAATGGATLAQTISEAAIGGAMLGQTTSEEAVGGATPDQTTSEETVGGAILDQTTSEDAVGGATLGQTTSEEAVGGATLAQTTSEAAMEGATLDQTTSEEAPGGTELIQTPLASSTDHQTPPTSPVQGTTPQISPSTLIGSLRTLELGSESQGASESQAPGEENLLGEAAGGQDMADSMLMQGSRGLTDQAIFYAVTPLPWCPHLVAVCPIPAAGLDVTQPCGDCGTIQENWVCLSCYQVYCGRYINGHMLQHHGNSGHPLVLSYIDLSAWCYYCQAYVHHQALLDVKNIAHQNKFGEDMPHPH

in vivo = details: male, Sprague-Dawley, rat, plasma, po, 20 mg/kg
HDAC2 = HDAC2 (Homo sapiens, UniProt Q92769); experiment: HDAC isoform inhibition assay (Reaction Biology); details: read-out: IC50 HDAC2; 10-dose IC50 mode, threefold serial dilution starting at 10 μM
Sequence of HDAC2 (Q92769 whole entry, canonical isoform): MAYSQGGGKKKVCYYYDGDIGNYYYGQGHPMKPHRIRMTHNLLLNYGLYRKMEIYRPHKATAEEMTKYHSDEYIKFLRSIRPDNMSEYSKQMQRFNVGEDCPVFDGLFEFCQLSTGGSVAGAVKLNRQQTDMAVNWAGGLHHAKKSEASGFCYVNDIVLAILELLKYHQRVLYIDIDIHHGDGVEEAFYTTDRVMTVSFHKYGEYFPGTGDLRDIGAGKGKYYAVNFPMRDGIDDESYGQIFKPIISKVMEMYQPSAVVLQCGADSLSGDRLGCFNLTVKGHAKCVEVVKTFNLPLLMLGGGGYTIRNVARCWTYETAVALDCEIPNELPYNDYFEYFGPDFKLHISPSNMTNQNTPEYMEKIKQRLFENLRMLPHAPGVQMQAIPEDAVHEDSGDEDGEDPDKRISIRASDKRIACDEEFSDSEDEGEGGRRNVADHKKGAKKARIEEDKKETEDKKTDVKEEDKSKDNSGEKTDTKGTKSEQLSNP

LSD1 [2] = target: T1, LSD1; experiment: KDM1/LSD1 activity quantification/colorimetric assay; assay type: biochemical; details: 1 and 10 μM; compared with Corgline, selegiline, tranylcypromine, pargyline
Procedure: LSD1 inhibitory assay was also performed using the KDM1/LSD1 Activity Quantification/Colorimetric Assay Kit, as described earlier.[38]

HDAC8 = target: T3, HDAC8 (Homo sapiens, UniProt Q9BY41); experiment: HDAC isoform inhibition assay (Reaction Biology); details: read-out: IC50 HDAC8; 10-dose IC50 mode, threefold serial dilution starting at 10 μM
T3 sequence (Q9BY41 1-377): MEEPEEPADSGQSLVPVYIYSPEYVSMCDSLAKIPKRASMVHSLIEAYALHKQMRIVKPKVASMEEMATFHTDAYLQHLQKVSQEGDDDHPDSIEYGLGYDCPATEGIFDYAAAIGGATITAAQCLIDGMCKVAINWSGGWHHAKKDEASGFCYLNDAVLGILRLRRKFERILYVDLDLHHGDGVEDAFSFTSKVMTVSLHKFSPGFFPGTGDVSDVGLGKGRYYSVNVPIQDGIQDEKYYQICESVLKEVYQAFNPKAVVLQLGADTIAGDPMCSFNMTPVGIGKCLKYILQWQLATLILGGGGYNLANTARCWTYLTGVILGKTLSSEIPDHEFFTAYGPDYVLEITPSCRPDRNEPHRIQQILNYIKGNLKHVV

[3] = read-out: IC50 HDAC6, 10-dose IC50 mode, threefold serial dilution starting at 10 μM

Sequence of HDAC1 (Q13547 whole entry, canonical isoform): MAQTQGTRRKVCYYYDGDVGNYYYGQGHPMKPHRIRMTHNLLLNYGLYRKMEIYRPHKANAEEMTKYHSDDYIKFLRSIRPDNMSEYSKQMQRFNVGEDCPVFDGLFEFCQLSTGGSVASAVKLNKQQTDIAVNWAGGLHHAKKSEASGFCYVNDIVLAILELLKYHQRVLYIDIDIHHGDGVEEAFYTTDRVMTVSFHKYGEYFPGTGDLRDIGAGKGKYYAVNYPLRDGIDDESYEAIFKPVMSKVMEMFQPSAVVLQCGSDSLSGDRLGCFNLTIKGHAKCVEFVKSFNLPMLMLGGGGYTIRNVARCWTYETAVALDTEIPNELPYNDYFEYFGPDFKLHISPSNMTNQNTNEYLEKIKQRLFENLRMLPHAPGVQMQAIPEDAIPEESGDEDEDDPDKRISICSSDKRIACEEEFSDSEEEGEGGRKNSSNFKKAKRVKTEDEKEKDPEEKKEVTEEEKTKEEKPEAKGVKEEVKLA

Compound	IC50 (LSD1 [1])	IC50 (HDAC6; [3])	IC50 (HDAC2)	IC50 (HDAC8)	IC50 (HDAC1)	also measured
O=C(NO)c1ccc(CN[C@@H]2C[C@H]2c2ccccc2)cc1 [Compound 1, N-Hydroxy-4-((((1R,2S)-2-phenylcyclopropyl)amino)methyl)benzamide]	28 µM	–	–	–	8720 nM	–
O=C(/C=C/c1cccc(S(=O)(=O)N[C@@H]2C[C@H]2c2ccccc2)c1)NO [Compound 2, (E)-N-Hydroxy-3-(3-(N-((1R,2S)-2-phenylcyclopropyl)sulfamoyl)phenyl)acrylamide]	0.571 µM	11.8 nM	373 nM	–	125 nM	toxicity based on body weight measurements (HCT-116): did not cause evident toxicity in animals; IC50 (HDAC6): 11 nM; Tmax (in vivo): 1.1 ± 0.9 h; inhibition of LSD1 activity versus standard LSD1 inhibitors (LSD1 [2]): more effective in inhibiting the activity of LSD1 than the standard LSD1 inhibitor
O=C(/C=C/c1ccc(S(=O)(=O)N[C@@H]2C[C@H]2c2ccccc2)cc1)NO [Compound 3, (E)-N-Hydroxy-3-(4-(N-((1R,2S)-2-phenylcyclopropyl)sulfamoyl)phenyl)acrylamide]	0.899 µM	9.66 nM	343 nM	753 nM	116 nM	IC50 (HDAC6): 9 nM
O=C(NO)c1ccc(CN2CCC(CN[C@@H]3C[C@H]3c3ccccc3)CC2)cc1 [Compound 9, N-Hydroxy-4-((4-((((1R,2S)-2-phenylcyclopropyl)amino)methyl)piperidin-1-yl)methyl)benzamide]	–	–	–	1260 nM	12900 nM	–

The next lines start with results.

IC50 (LSD1 [1])	IC50 (HDAC6; [3])	IC50 (HDAC2)	IC50 (HDAC8)	Compound	IC50 (HDAC1)	also measured
38.3 µM	–	–	–	O=C(CCCCCC(=O)N[C@@H]1C[C@H]1c1ccccc1)NO [Compound 4, N1-Hydroxy-N7-((1R,2S)-2-phenylcyclopropyl)heptanediamide]	–	–
14.6 µM	–	–	–	O=C(CCCCCCC(=O)N[C@@H]1C[C@H]1c1ccccc1)NO [Compound 5, N1-Hydroxy-N8-((1R,2S)-2-phenylcyclopropyl)octanediamide]	–	–
7.68 µM	–	–	–	O=C(CCCCCCCCC(=O)N[C@@H]1C[C@H]1c1ccccc1)NO [Compound 7, N1-Hydroxy-N10-((1R,2S)-2-phenylcyclopropyl)decanediamide]	–	–
1.61 µM	3730 nM	–	–	O=C(CCCCCCC(=O)Nc1ccc(CN[C@@H]2C[C@H]2c2ccccc2)cc1)NO [Compound 8]	–	–
2.4 µM	9.32 nM	8300 nM	407 nM	O=C(NO)c1ccc(CN2CCC(S(=O)(=O)N[C@@H]3C[C@H]3c3ccccc3)CC2)cc1 [Compound 10, N-Hydroxy-4-((4-(N-((1R,2S)-2-phenylcyclopropyl)sulfamoyl)piperidin-1-yl)methyl)benzamide]	4120 nM	IC50 (HDAC6; read-out: HDAC6 IC50 as given in the text, rounded values of the running text): 9 nM
